Tested on: corticospinal neurons (CSNs/CSMNs)
Test: Laser-capture microdissection and Illumina microarray gene expression in corticospinal neurons contralateral to stroke
Type: in vivo, rat
Conditions: for Signal Intensity, Treatment after Stroke: Inosine: CSMNs contralateral to SMA infarct
Method: In a separate group of animals (n=20), layer V pyramidal cells of the sensorimotor cortex were retrogradely labeled by injecting Alexa-Fluor-488-conjugated cholera toxin B subunit (CTB; 300 U/μl in sterile saline) into the cervical spinal cord. For this, animals were anesthetized with a combination of ketamine and Domitor (medetomidine) and a laminectomy was performed at the cervical level of the spinal cord (C2-C4). CTB was stereotaxically delivered into four sites lateral to the corticospinal tract. Injections (1.3 μl) were spaced 1 mm apart on the rostro-caudal axis, and were made 0.5 mm to the left and right of the midline. After allowing two weeks for transport of the tracer, we performed either sham surgery with no treatment (n=6) or stroke surgery combined with saline (n=3) or inosine (n=4) treatment as described above. Seven days later, animals were decapitated under transient gas anesthesia, brains were removed and rinsed in cold RPMI medium, and a tissue block containing the sensorimotor cortex was dissected and placed in OCT Tissue Tek Medium (Sakura Finetek USA Inc., CA) on dry ice within five minutes of death. Ten μm sections were cut onto precleaned Gold Seal RITE-ON glass slides (Gold Seal Prod-ucts, Portsmouth, N.H.), placed on dry ice, and rapidly stored at −80° C.
Slide-mounted sections were thawed and dehydrated in RNAse-free ethanol gradients and xylene. Retro-gradely labeled, fluorescent cortical pyramidal cells in the undamaged hemisphere were individually captured using the Arcturus VERITAS system. ≧500 cells were collected from each animal and stored in Arcturus extraction buffer at −80° C. Total RNA was extracted from cells using the Micro-to-Midi TotalRNA Purification System (Invitrogen, Carlsbad Calif.) and double-amplified using the TargetAmp 2-Round Aminoallyl-aRNA Amplification kit 1.0 (Epicentre, Madison, Wis.). Amplified RNA was checked for average fragment length using the Agilent RNA 6000 Nano LabChip kit (Agilent Technologies, Santa Clara, Calif.) and then biotinylated and hybridized (1 μg) on Illumina RatRef-12 Expression BeadChip arrays (Illumina, San Diego Calif.), querying the expression of >22,000 RefSeq-curated rat transcripts. Results were obtained from a total of 15 samples representing 6 untreated controls, 4 animals with stroke treated with saline and 5 animals with stroke treated with inosine. Slides were processed and scanned with Illumina BeadStation platform according to the manufacturer protocol.
Raw data was analyzed using Bioconductor packages (www.bioconductor.org, (Gentleman et al., 2004)). Low level quality-control analysis was performed using inter-array Pearson correlation and clustering based on variance. Two arrays (1 saline and 1 inosine-treated) were outliers and were excluded from the analysis. Data was normalized using quantile normalization, and analysis of differential expression was performed using a linear model fitting (LIMMA package, (Smyth, 2005). Differentially expressed genes were classified according to gene ontology using Bioconductor packages and online tools (DAVID, http://david.abcc.ncifcrf.gov/). Pathway analysis was carried out using Ingenuity Pathway Analysis (Ingenuity Systems, www.ingenuity.com).

OC[C@H]1O[C@@H](n2cnc3c(O)ncnc32)[C@H](O)[C@@H]1O [inosine]
Signal Intensity Inosine (Lgals3bp ILMN_60037): 629
Fold-Induction Stroke, ino vs. cntrl (Man2b1 ILMN_65999): 2.64
Signal Intensity Inosine (Man2b1 ILMN_65999): 1676
Fold-Induction Stroke, ino vs. cntrl (Map2k6 ILMN_53013): 1.19
Signal Intensity Inosine (Map2k6 ILMN_53013): 3981
Fold-Induction Stroke, ino vs. cntrl (Mt1a ILMN_53575): 3.68
Signal Intensity Inosine (Mt1a ILMN_53575): 3267
Fold-Induction Stroke, ino vs. cntrl (Nfkbia ILMN_49934): 2.69
Signal Intensity Inosine (Nfkbia ILMN_49934): 3250
Fold-Induction Stroke, ino vs. cntrl (Oplah ILMN_65374): 2.05
Signal Intensity Inosine (Oplah ILMN_65374): 2440
Fold-Induction Stroke, ino vs. cntrl (Pfc ILMN_56164): 2.02
Signal Intensity Inosine (Pfc ILMN_56164): 1375
Fold-Induction Stroke, ino vs. cntrl (Pkn1 ILMN_63766): 1.69
Signal Intensity Inosine (Pkn1 ILMN_63766): 2365
Fold-Induction Stroke, ino vs. cntrl (Plcd1 ILMN_50502): 1.90
Signal Intensity Inosine (Plcd1 ILMN_50502): 1514
Fold-Induction Stroke, ino vs. cntrl (Plek ILMN_57609): 2.99
Signal Intensity Inosine (Plek ILMN_57609): 1937
Fold-Induction Stroke, ino vs. cntrl (Pnck ILMN_66828): 1.65
Signal Intensity Inosine (Pnck ILMN_66828): 8946
Fold-Induction Stroke, ino vs. cntrl (Polrmt ILMN_59207): 1.52
Signal Intensity Inosine (Polrmt ILMN_59207): 1219
Fold-Induction Stroke, ino vs. cntrl (Ppp1r14b ILMN_59774): 2.26
Signal Intensity Inosine (Ppp1r14b ILMN_59774): 2071
Fold-Induction Stroke, ino vs. cntrl (Ptpn6 ILMN_61314): 3.52
Signal Intensity Inosine (Ptpn6 ILMN_61314): 957
Fold-Induction Stroke, ino vs. cntrl (Ptprr ILMN_55987): 1.04
Signal Intensity Inosine (Ptprr ILMN_55987): 676
Fold-Induction Stroke, ino vs. cntrl (RGD1309326 ILMN_60781): 1.43
Signal Intensity Inosine (RGD1309326 ILMN_60781): 2333
Fold-Induction Stroke, ino vs. cntrl (RT1-Da ILMN_59933): 11.11
Signal Intensity Inosine (RT1-Da ILMN_59933): 3072
Fold-Induction Stroke, ino vs. cntrl (Rbl2 ILMN_59080): 1.30
Signal Intensity Inosine (Rbl2 ILMN_59080): 1060
Fold-Induction Stroke, ino vs. cntrl (Rfx1 ILMN_50833): 1.51
Signal Intensity Inosine (Rfx1 ILMN_50833): 4995
Fold-Induction Stroke, ino vs. cntrl (Rhoj ILMN_58882): 2.67
Signal Intensity Inosine (Rhoj ILMN_58882): 588
Fold-Induction Stroke, ino vs. cntrl (Rhot2 ILMN_62537): 1.68
Signal Intensity Inosine (Rhot2 ILMN_62537): 1112
Fold-Induction Stroke, ino vs. cntrl (Rnaset2 ILMN_55431): 2.31
Signal Intensity Inosine (Rnaset2 ILMN_55431): 7227
Fold-Induction Stroke, ino vs. cntrl (Serpinb1a ILMN_57422): 2.68
Signal Intensity Inosine (Serpinb1a ILMN_57422): 589
Fold-Induction Stroke, ino vs. cntrl (Serping1 ILMN_60046): 3.19
Signal Intensity Inosine (Serping1 ILMN_60046): 1251
Fold-Induction Stroke, ino vs. cntrl (Sgpp1 ILMN_57304): 0.44
Signal Intensity Inosine (Sgpp1 ILMN_57304): 316
Fold-Induction Stroke, ino vs. cntrl (Slc9a1 ILMN_53105): 1.32
Signal Intensity Inosine (Slc9a1 ILMN_53105): 2100
Fold-Induction Stroke, ino vs. cntrl (Slc35b4 ILMN_68450): 1.41
Signal Intensity Inosine (Slc35b4 ILMN_68450): 430
Fold-Induction Stroke, ino vs. cntrl (Smoc2 ILMN_60870): 3.79
Signal Intensity Inosine (Smoc2 ILMN_60870): 1123
Fold-Induction Stroke, ino vs. cntrl (Soc ILMN_57817): 1.36
Signal Intensity Inosine (Soc ILMN_57817): 1341
Fold-Induction Stroke, ino vs. cntrl (Srebf1 ILMN_51834): 1.47
Signal Intensity Inosine (Srebf1 ILMN_51834): 1069
Fold-Induction Stroke, ino vs. cntrl (Tcirg1 ILMN_52949): 2.81
Signal Intensity Inosine (Tcirg1 ILMN_52949): 2173
Fold-Induction Stroke, ino vs. cntrl (Timp1 ILMN_62559): 3.57
Signal Intensity Inosine (Timp1 ILMN_62559): 2293
Fold-Induction Stroke, ino vs. cntrl (Tle2 ILMN_54011): 3.03
Signal Intensity Inosine (Tle2 ILMN_54011): 2295
Fold-Induction Stroke, ino vs. cntrl (Tm6p1 ILMN_57902): 1.99
Signal Intensity Inosine (Tm6p1 ILMN_57902): 1532
Fold-Induction Stroke, ino vs. cntrl (Trim39 ILMN_54591): 1.35
Signal Intensity Inosine (Trim39 ILMN_54591): 1351
Fold-Induction Stroke, ino vs. cntrl (Unc93b ILMN_53114): 2.10
Signal Intensity Inosine (Unc93b ILMN_53114): 600
Signal Intensity, Treatment after Stroke: Inosine (gene P2rxl1 (ILMN_68585)): 246
Signal Intensity, Treatment after Stroke: Inosine (gene Tm7sf2 (ILMN_58100)): 419
